In one assay the test system is tonic seizure. Kind of assay: Maximal electroshock test. The class given is in vivo. The conditions noted are these: Mus musculus, ip, steroids i.p., mice. Here is the method:
(§1) The anticonvulsant tests are similar to that described above. […] The number of animals with tonic and/or clonic convulsions was recorded. In the maximal electroshock test, 50 mA of current at 60 Hz was delivered through corneal electrodes for 200 msec to induce tonic seizure. The ability of compounds to abolish the tonic component was defined as the endpoint. General CNS depression potential was determined by a rotorod test 10 minutes after the injection of compounds where the number of mice staying on a rotating (6 rpm) rod for 1 minute in one of the three trials was determined. […] Table 7. Anticonvulsant Activity of Exemplified Neuroactive Steroids and those of Selected Clinically Useful Anticonvulsants in Mice
Background: The maximal electroshock test induces tonic seizures with an electrical stimulus.

Assay [1] concerns metrazol induced convulsions. Kind of assay: animal or person. The conditions noted are these: Mus musculus; metrazol 85 mg/kg s.c., steroids i.p., mice. The class given is in vivo, mice.
For a further assay, the system named is picrotoxin. Kind of assay: Anticonvulsant test against picrotoxin. The class given is in vivo, mice. The conditions noted are these: Mus musculus, read-out: ED50 PICRO. Here is the method: as §1
The next assay deals with (+)bicuculline. Kind of assay: Anticonvulsant test against (+)bicuculline. The class given is in vivo, mice. The conditions noted are these: Mus musculus, read-out: ED50 BIC. Here is the method: as §1
A further assay has as its system strychnine. Kind of assay: Anticonvulsant test against strychnine. The class given is in vivo, mice. The conditions noted are these: Mus musculus, read-out: ED50 STR. The procedure:
as §1

The subject of assay [2] is Bovine Uteral Progesterone Receptors. Kind of assay: Inhibition of 3H-progesterone binding, uterus cytosol. The conditions noted are these: competitor 10^-6M; 3H-progesterone 0.15 nM. The essentials:
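Rat uterus cytosol was incubated with 0.15 nM ^3H-progesterone plus test compounds. Values are percent inhibition of specific binding versus a compound-free control incubation.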

Another assay has as its target T1, Glucocorticoid Receptors (Rattus norvegicus, UniProt P06536).
T1 construct: from tissue; host or cells: rat brain cytosol
T1 sequence (P06536 1-795): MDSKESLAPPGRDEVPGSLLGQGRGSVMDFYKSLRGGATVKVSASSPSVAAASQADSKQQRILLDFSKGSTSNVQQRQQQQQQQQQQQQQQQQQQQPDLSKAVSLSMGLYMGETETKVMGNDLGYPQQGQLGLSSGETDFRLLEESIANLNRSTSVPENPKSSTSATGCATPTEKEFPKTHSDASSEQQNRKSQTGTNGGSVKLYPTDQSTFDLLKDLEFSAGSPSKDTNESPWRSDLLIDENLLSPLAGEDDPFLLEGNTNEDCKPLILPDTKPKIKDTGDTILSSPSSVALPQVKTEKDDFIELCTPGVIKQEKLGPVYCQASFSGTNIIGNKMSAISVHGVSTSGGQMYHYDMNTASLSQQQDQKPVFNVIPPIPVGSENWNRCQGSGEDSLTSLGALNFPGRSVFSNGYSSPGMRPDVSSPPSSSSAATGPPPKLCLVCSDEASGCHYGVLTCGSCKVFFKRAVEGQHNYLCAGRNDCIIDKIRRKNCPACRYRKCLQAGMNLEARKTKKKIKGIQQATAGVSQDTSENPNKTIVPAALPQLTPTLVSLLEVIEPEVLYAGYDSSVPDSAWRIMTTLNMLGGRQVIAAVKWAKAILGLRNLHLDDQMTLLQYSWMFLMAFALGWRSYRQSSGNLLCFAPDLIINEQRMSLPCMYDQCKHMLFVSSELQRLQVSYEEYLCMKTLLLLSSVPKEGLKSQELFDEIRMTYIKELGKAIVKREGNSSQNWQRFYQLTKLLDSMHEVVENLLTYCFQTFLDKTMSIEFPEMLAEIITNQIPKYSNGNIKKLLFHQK
Kind of assay: Inhibition of 3H-dexamethasone binding, brain cytosol. Set-up: species or system rats; dose or concentration left out as unconfirmed. The conditions noted are these: read-out: % of Inhibition. Here is the method: Various hormonal activities of representative neuroactive steroids were further studied through testing their potential estrogenic, mineralocorticoid and glucocorticoid activities. These activities were analyzed by monitoring the ability of the compounds to inhibit binding of the steroid hormones to their respective hormone receptors.
For Table 4, brain cytosol fractions were prepared as for Table 3, and the compounds were incubated with 3 nM of ^3H-dexamethasone (the specific ligand for the glucocorticoid receptor).

From patent EP1038880B1, “Androstanes and pregnanes for allosteric modulation of GABA receptor” (priority 1994, dated 1995) come the findings set out here.

What is called ED50 is the dose that gives a 50% effect, or the effect in half of the subjects. By inhibition is commonly meant how much of the control response was suppressed. Turning to `C[C@]12CC[C@@H](O)C[C@@H]1CC[C@@H]1[C@@H]2CC[C@]2(C)[C@@H](C(=O)CO)CC[C@@H]12` [3α,21-dihydroxy-5α-pregnan-20-one], the ED50 was 26.7 mg/kg with tonic seizure; 8.1 mg/kg in assay [1]; 5.6 mg/kg with picrotoxin; 17.8 mg/kg in the assay with (+)bicuculline; greater than 300 mg/kg with strychnine. Also, the “% of Inhibition” value in assay [2] was 13%. On Glucocorticoid Receptors, the inhibition was 29.5%.
In the case of `CC(=O)[C@H]1CC[C@H]2[C@@H]3CC[C@H]4C[C@H](O)CC[C@]4(C)[C@H]3CC[C@]12C` [3α-Hydroxy-5α-pregnan-20-one, 3α-hydroxy-5α-pregnan-20-one], the ED50 in the assay on tonic seizure was 28.6 mg/kg; in assay [1], 4.9 mg/kg; in the assay with picrotoxin, 10.2 mg/kg; in the assay on (+)bicuculline, 12.3 mg/kg; in the assay with strychnine, greater than 300 mg/kg. Also, the “% of Inhibition” value in assay [2] came to 14%. On Glucocorticoid Receptors, the inhibition amounted to 8.7%.
